Data reported in US20240024340A1, “Compositions and Methods For Treating Migraine” (priority 2020, published 2024).
“Also recorded” adds a separate entry of the source.

What was measured:
BALB/c mice [1] = type: in vivo; details: for effect on TST immobility compared to vehicle: Day 22 (FIG. 6B), imipramine 15 mg/kg, psilocybin 5 mg/kg Day 1, or both
Description: Imipraime (15 mg/kg) was given 1 hour before tail suspension testing on Day 22. […] For positive control, one group was given imipramine which is known to reduce immobility in TST in stressed mice.
Analysis: Simple comparisons between two groups were measured through inferential means.
Psilocybin loading dose was given 3-weeks prior to behavioral testing and imipramine was given 1-hour before testing on each testing day via Intraperitoneal injection (i.p, 5 ml/kg).

BALB/c mice [2] = assay: Tail suspension test (TST), depression; psilocybin loading dose then psilocybin+CBD+6 MB maintenance
BALB/c mice [3] = assay: Elevated plus maze (EPM), anxiety-like behavior

Compound	effect on TST immobility compared to vehicle (BALB/c mice [1])	immobile posture time in TST (BALB/c mice [2]; Day 15, psilocybin loading dose 5 mg/kg on Day 1)	immobility time in TST (BALB/c mice [2]; Day 22 (three weeks after 5 mg/kg loading dose of psilocybin), all groups receiving a loading dose)	depression (symptoms) in mouse model (BALB/c mice [2]; loading dose psilocybin 5 mg/kg, alone or followed by maintenance psilocybin, CBD and 6 mushroom blend)	effect of psilocybin loading dose on anti-depressive properties of imipramine (BALB/c mice [1]; psilocybin 5 mg/kg Day 1, imipramine 15 mg/kg one hour before TST on Day 22 or Day 29)	percentage of time spent in open space / open arms of the EPM (BALB/c mice [3]; Day 14, two weeks after loading dose of 5 mg/kg psilocybin, vs vehicle control, 5 mg/kg)	anxiety (symptoms) in mouse model (BALB/c mice [3]; loading dose psilocybin 5 mg/kg, alone or followed by low dose psilocybin, CBD and 6 mushroom blend)
CN(C)CCCN1c2ccccc2CCc2ccccc21 [imipramine]	anti-depressant effect						
[3-(2-dimethylaminoethyl)-1H-indol-4-yl] dihydrogen phosphate [psilocybin]	anti-depressant effect	decreased	significantly lower; also recorded: significant decrease	decreased	potentiate	significantly increased; also recorded: more time	decreased
